Where two headings read alike, the source gives them in different places.
Legend:
full length human FXR = molecular target: T1, full length human FXR (Homo sapiens, UniProt Q96RI1); assay: Direct reporter (DR) gene assay in stably transfected HEK293 cells (D2IV3), luciferase; type: cell-based
T1 construct: The full length human FXR (NM_005123) was cloned into pTRexDest30; expressed in transfected cells
T1 sequence (Q96RI1 1-472 isoform Q96RI1-2): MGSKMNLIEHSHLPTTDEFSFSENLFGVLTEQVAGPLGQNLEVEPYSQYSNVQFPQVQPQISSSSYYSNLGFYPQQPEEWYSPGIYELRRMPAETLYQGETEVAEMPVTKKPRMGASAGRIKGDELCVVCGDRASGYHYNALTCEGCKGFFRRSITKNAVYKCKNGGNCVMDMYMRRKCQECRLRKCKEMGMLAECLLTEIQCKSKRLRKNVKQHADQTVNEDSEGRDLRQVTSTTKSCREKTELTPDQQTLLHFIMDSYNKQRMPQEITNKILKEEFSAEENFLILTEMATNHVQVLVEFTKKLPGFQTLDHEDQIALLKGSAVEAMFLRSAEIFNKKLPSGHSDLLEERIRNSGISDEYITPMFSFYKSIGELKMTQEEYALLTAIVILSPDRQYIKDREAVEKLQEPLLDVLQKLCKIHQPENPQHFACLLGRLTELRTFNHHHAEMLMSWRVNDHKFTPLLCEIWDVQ
Text: In the direct reporter gene assay, HEK293 cells, obtained from DSMZ (German Collection of Microorganisms and Cell Cultures, Braunschweig, Germany) were stably transfected with pTRexDest30 (Invitrogen) derivative pTRexDest30-hFXR and pGL2promoter (Promega) derivative pGL2promoter-2xIBABP-RE. The full length human FXR (NM_005123) was cloned into pTRexDest30 according to the manufacturer protocol for the Gateway system (Invitrogen). The FXR response elements cccaGGGTGAaTAACCTcggggctctgtccctccaatcccaGGGTGAaTAACCTcggg were derived from the human IBABP-P promoter (Grober et al. 1999, JBC, 174, pp.29749-29754) and cloned into pGL2promoter. […] For the direct reporter gene assays, D2IV3 cells were grown in MEM with L-Glutamine and Earle's BSS supplemented with 10% fetal bovine serum, 0.1mM nonessential amino acids, 1mM sodium pyruvate, and 100units Penicilin/[…] per ml at 37°C in 5% CO2. Medium and supplements were obtained from Invitrogen. For the assay, 5x10^5 cells were plated per well in 96well plates in 100µl per well minimum essential medium (same composition as above) incubated at 37°C in 5% CO2. The following day the cells were >90% confluence. Compounds were prediluted in MEM and added at different concentrations to the cells with the final DMSO vehicle concentration not exceeding 0.1%. Cells were incubated for additional 16 hours before firefly luciferase activity was measured. All experiments were done in triplicates.

[1] = molecular target: T2, human FXR alpha ligand binding domain (Homo sapiens, UniProt Q96RI1); assay: FRET activity assay (ligand mediated FXR-LBD / SRC-1 cofactor peptide interaction, LANCE); type: biochemical
T2 construct: made in house; host or cells: E. coli BL21(DE3), vector pDEST15
T2 sequence (Q96RI1 187-472 isoform Q96RI1-2): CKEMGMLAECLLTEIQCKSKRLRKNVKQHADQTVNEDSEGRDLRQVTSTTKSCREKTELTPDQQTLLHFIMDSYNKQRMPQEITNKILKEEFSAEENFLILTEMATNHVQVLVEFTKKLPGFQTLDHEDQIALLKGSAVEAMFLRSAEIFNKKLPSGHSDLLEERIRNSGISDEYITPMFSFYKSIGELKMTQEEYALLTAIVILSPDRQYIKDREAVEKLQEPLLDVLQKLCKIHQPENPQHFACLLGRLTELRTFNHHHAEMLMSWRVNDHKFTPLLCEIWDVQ
Experimental: Determination of a ligand mediated cofactor peptide interaction to quantify ligand binding to the nuclear receptor FXR was performed as follows: Preparation of human FXR alpha ligand binding domain: The human FXRalpha LBD was expressed in E. coli strain BL21(DE3) as an N-terminally GST tagged fusion protein. The DNA encoding the FXR ligand binding domain was cloned into vector pDEST15 (Invitrogen). Expression was under control of an IPTG inducible T7 promoter. The amino acid boundaries of the ligand binding domain were amino acids 187-472 of Database entry NM_005123 (RefSeq). Expression and purification of the FXR-LBD:
An overnight preculture of a transformed E.coli strain was diluted 1:20 in LB-Ampicillin medium and grown at 30°C to an optical density of OD600=0.4-0.6. Gene expression was then induced by addition of 0.5 mM IPTG. Cells were incubated an additional 6h at 30°C, 180 rpm. Cells were collected by centrifugation (7000 x g, 7 min, room temperature). Per liter of original cell culture, cells were resuspended in 10 ml lysis buffer (50 mM Glucose, 50 mM Tris pH 7.9, 1 mM EDTA and 4 mg/ml lysozyme) and left on ice for 30 min. Cells were then subjected to sonication and cell debris removed via centrifugation (22000 x g, 30 min, 4°C). Per 10 ml of supernatant 0.5 ml prewashed Glutathione 4B sepharose slurry (Qiagen) was added and the suspension kept slowly rotating for 1 h at 4°C. Glutathione 4B sepharose beads were pelleted by centrifugation (2000 g, 15 sec, 4°C) and washed twice in wash buffer (25 mM Tris, 50mM KCl, 4 mM MgCl2 and 1M NaCl). The pellet was resuspended in 3 ml elution buffer per liter of original culture (elution buffer: 20 mM Tris, 60 mM KCI, 5 mM MgCl2 and 80 mM glutathione added immediately prior to use as powder). The suspension was left rotating for 15 min at 4°C, the beads pelleted and eluted again with half the volume of elution buffer than the first time. The eluates were pooled and dialysed overnight in 20 mM Hepes buffer (pH 7.5) containing 60 mM KCI, 5 mM MgCl2 as well as 1 mM dithiothreitol and 10% (v/v) glycerol. The protein was analysed by SDS-Page.
The method measures the ability of putative ligands to modulate the interaction between the purified bacterial expressed FXR ligand binding domain (LBD) and a synthetic biotinylated peptide based on residues 676-700 of SRC-1 (LCD2, 676-700). The sequence of the peptide used was B-[…]-COOH where the N-terminus was biotinylated (B). The ligand binding domain (LBD) of FXR was expressed as fusion protein with GST in BL-21 cells using the vector pDEST15. Cells were lysed by sonication, and the fusion proteins purified over glutathione sepharose (Pharmacia) according to the manufacturers instructions. […] For ease of handling and reduction of background from compound fluorescence LANCE technology makes use of generic fluorophore labels and time resolved detection Assays were done in a final volume of 2 5µl in a 384 well plate, in a Tris-based buffer (20 mM Tris-HCl pH 7,5; 60 mM KCI, 5 mM MgCl2; 35 ng/µl BSA), containing 20-60 ng/well recombinantly expressed FXR-LBD fused to GST, 200-600 nM N-terminally biotinylated peptide, representing SRC1 aminoacids 676-700, 200 ng/well Streptavidin-xIAPC conjugate(Prozyme) and 6-10 ng/well Eu W1024 - antiGST (Perkin Elmer). […] The LANCE signal was detected by a Perkin Elmer VICTOR2VTM Multilabel Counter The results were visualized by plotting the ratio between the emitted light at 665 nm and 615 nm. […]

[2] = molecular target: T3, FXR ligand binding domain (Homo sapiens, UniProt Q96RI1); assay: Mammalian one hybrid (M1H) assay, Gal4 promoter driven transactivation in HEK293 cells; type: cell-based; details: Gal4-FXR LBD, 16 hours incubation, dual luciferase, read-out: M1H assay EC50 (±sd)
T3 construct: expressed in transfected cells; host or cells: HEK293 (DSMZ), transient transfection, vector pCMV-BD
T3 sequence (Q96RI1 187-472 isoform Q96RI1-2): T2 sequence (Q96RI1 187-472 isoform Q96RI1-2)
Experimental: Determination of a ligand mediated Gal4 promoter driven transactivation to quantify ligand binding mediated activation of FXR was performed as follows: The cDNA part encoding the FXR ligand binding domain was cloned into vector pCMV-BD (Stratagene) as a fusion to the yeast GAL4 DNA binding domain under the control of the CMV promoter. The amino acid boundaries of the ligand binding domain were amino acids 187-472 of Database entry NM_005123 (RefSeq). The plasmid pFR-Luc (Stratagene) was used as the reporter plasmid, containing a synthetic promoter with five tandem repeats of the yeast GAL4 binding sites, driving the expression of the Photinus pyralis (American firefly) luciferase gene as the reporter gene. In order to improve experimental accuracy the plasmid pRL-CMV (Promega) was cotransfected. pRL-CMV contains the constitutive CMV promoter, controlling the expression of the Renilla reniformis luciferase. All Gal4 reporter gene assays were done in HEK293 cells (obtained from DSMZ, Braunschweig, Germany) grown in MEM with L-Glutamine and Earle's BSS supplemented with 10% fetal bovine serum, 0.1 mM nonessential amino acids, 1mM sodium pyruvate, and 100units Penicilin/[…] per ml at 37°C in 5% CO2. Medium and supplements were obtained from Invitrogen. For the assay, 5x10^5 cells were plated per well in 96well plates in 100µl per well MEM without Phenol Red and L-Glutamine and with Earle's BSS supplemented with 10% charcoal/dextran treated FBS (HyClone, South Logan, Utah), 0.1 mM nonessential amino acids, 2 mM glutamine, 1 mM sodium pyruvate, and 100 units Penicilin/[…] per ml, incubated at 37 °C in 5% CO2. The following day the cells were >90% confluence. Medium was removed and cells were transiently transfected using 20µl per well of a OptiMEM - polyethylene-imine-based transfection-reagent (OptiMEM, Invitrogen; Polyethyleneimine, Aldrich Cat No. 40,827-7) including the three plasmids described above. MEM with the same composition as used for plating cells was added 2-4 hours after addition of transfection mixture. Then compound stocks, prediluted in MEM were added (final vehicle concentration not exceeding 0.1 %). Cells were incubated for additional 16 hours before firefly and renilla luciferase activities were measured sequentially in the same cell extract using a Dual-Light-Luciferase-Assay system (Dyer et al., Anal Biochem 2000, (282), 158-161). All experiments were done in triplicates.

[3] = 16 hours incubation, firefly luciferase, read-out: DR assay EC50 (±sd)
[4] = GST-tagged FXR-LBD, biotinylated SRC-1 peptide 676-700; read-out: FRET assay EC50 (±sd)

Compound	EC50 (full length human FXR; [3]) [nM]	EC50 [1, 4] [nM]	EC50 [2] [nM]	EC50 (full length human FXR; read-out: DR assay EC50 (±sd), 16 hours incubation, firefly luciferase) [nM]	EC50 ([1]; read-out: FRET assay EC50 (±sd); GST-tagged FXR-LBD, biotinylated SRC-1 peptide 676-700) [nM]
CC(C)c1onc(-c2c(Cl)cccc2Cl)c1COc1ccc(N(C)Cc2ccc(C(=O)O)cc2)c(C(F)(F)F)n1 [Compound B, 4-(((6-((3-(2,6-Dichlorophenyl)-5-isopropylisoxazol-4-yl)methoxy)-2-(trifluoromethyl)pyridin-3-yl)(methyl)amino)methyl)benzoic acid, reference compound]	13	17	95		
CC(C)c1onc(-c2c(Cl)cccc2Cl)c1COc1ccc(N(C)Cc2cccc(C(=O)O)c2)c(C(F)(F)F)n1 [Compound C, 3-(((6-((3-(2,6-Dichlorophenyl)-5-isopropylisoxazol-4-yl)methoxy)-2-(trifluoromethyl)pyridin-3-yl)(methyl)amino)methyl)benzoic acid, reference compound]	5.7	11	186		
CN(Cc1ccc(C(=O)O)cc1)c1ccc(OCc2c(-c3c(Cl)cccc3Cl)noc2C2CC2)nc1C(F)(F)F [Example 1, 4-{[(6-((5-Cyclopropyl-3-(2,6-dichlorophenyl)isoxazol-4-yl)methoxy)-2-(trifluoromethyl)pyridin-3-yl)(methyl)amino]methyl}benzoic acid]			56	6.4	8.4
Cc1cc(CN(C)c2ccc(OCc3c(-c4c(Cl)cccc4Cl)noc3C3CC3)nc2C(F)(F)F)ccc1C(=O)O [Example 2, 4-{[(6-((5-Cyclopropyl-3-(2,6-dichlorophenyl)isoxazol-4-yl)methoxy)-2-(trifluoromethyl)pyridin-3-yl)(methyl)amino]methyl}-2-methylbenzoic acid]	6	7.7	40		
Cc1cc(CN(C)c2ccc(OCc3c(-c4c(Cl)cccc4Cl)noc3C3CC3)nc2C(F)(F)F)cc(C)c1C(=O)O [Example 3, 4-{[(6-((5-Cyclopropyl-3-(2,6-dichlorophenyl)isoxazol-4-yl)methoxy)-2-(trifluoromethyl)pyridin-3-yl)(methyl)amino]methyl}-2,6-dimethylbenzoic acid]	6	11.5	55		

Reference: patent EP2128158A1, “Heterocyclic cyclopropyl-substituted FXR binding compounds” (Phenex Pharmaceuticals AG, priority 2008, dated 2009)
